Data set [1] has as its target T1, human calcitonin receptor (hCTR2) (Homo sapiens, UniProt P30988).
T1 construct: expressed in transfected cells
T1 sequence (P30988 25-474): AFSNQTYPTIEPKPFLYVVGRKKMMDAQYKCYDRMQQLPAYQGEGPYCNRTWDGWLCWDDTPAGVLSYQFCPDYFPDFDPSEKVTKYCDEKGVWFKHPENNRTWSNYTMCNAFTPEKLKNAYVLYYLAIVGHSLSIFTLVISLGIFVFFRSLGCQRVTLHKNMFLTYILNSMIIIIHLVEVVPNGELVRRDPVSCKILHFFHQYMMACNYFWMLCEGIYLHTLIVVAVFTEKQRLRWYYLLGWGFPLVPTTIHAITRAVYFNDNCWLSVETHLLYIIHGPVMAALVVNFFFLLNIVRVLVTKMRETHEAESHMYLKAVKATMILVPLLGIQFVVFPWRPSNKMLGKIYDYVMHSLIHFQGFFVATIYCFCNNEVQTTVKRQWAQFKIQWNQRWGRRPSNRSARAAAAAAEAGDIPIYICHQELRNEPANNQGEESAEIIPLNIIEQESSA
Nature of the data set: hCTR2 assay: induction of cAMP (AlphaScreen cAMP Assay kit) in COS7 cells expressing hCTR2. It counts as cell-based. To be noted: cAMP induction in COS7 cells expressing hCTR2; average of a minimum of 3 determinations; read-out: hCTR2 EC50. A digest of the protocol: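 Peptide-induced cAMP in hCTR2-expressing COS7 cells, 15 min at 37° C with phosphodiesterase inhibitor IBMX (100 µM), detected by AlphaScreen; potency from 4PL curves.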
A general note: Bead proximity is the source of the signal in Alpha formats.

The target in data set [2] is T2, human amylin receptor 3 (hAMYR3) consisting of hCTR2 co-expressed with human Receptor Activity Modifying Protein 3 (hRAMP3) (Homo sapiens, UniProt O60896+P30988).
T2 construct: expressed in transfected cells
T2 sequence (P30988 25-474): T1 sequence (P30988 25-474)
T2 sequence (O60896 24-148 partner): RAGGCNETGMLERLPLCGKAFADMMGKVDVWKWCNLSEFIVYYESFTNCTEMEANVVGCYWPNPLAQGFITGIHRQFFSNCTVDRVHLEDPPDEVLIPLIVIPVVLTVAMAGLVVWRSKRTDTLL
Kind of data set: hAMYR3 assay: induction of cAMP (AlphaScreen cAMP Assay kit) in COS7 cells expressing hAMYR3. To be noted: cAMP induction in COS7 cells expressing hAMYR3; average of a minimum of 3 determinations; read-out: hAMY R3 EC50. The class given is cell-based. A digest of the protocol:
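cAMP accumulation read by AlphaScreen in lysates of RAMP-naive COS7 cells stably transfected with hCTR2 plus hRAMP3. Cells exposed to peptide dilutions for 15 min, 37° C, with 100 µM IBMX; 4PL fitting gave EC50 and efficacy relative to pramlintide.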

Data set [3] in a line: Solubility assessment (turbidity absorbance at 325 nm). It counts as physicochemical. The following applies: stock 2 mg/ml diluted 1:1, ambient temperature (typically 25°C), n=1; for Solubility, Acetate buffer pH 4: 100 mM acetate buffer pH 4.0; for Solubility, Acetate buffer pH 5: 100 mM acetate buffer pH 5.0; for Solubility, Histidine buffer pH 6: 100 mM histidine buffer pH 6.0; for Solubility, Histidine buffer pH 7: 100 mM histidine buffer pH 7.0; for Solubility, Phosphate buffer pH 6: 100 mM phosphate buffer pH 6.0; for Solubility, Phosphate buffer pH 7: 100 mM phosphate buffer pH 7.0; for Solubility, Phosphate buffer pH 7.5: 100 mM phosphate buffer pH7.5. A digest of the protocol: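 Turbidity read as absorbance at 325 nm (also 280 nm), single samples at ambient temperature (typically 25°C); ≤ 0.02 units counts as ≥ 1 mg/ml soluble. Samples made by 1:1 dilution of a 2 mg/ml acidic stock into 100 mM acetate, histidine or phosphate buffers, pH 4.0–7.5.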

Numbered stars: 1 amine (or outer) side, 2 acyl side, 3 side chain; on linkers, the order of the positions; unused ones are H or OH. Bridge positions count the residues as written; N and C are the ends. Square brackets hold non-standard residues; d marks the D form. Peptide text beside a SMILES is read from it. * marks the point of attachment. C20 diacid = O=C(O)CCCCCCCCCCCCCCCCCCC(=O)*; γGlu = O=C(O)[C@H](CCC(=O)[*:2])N[*:1]; NMeI = CC[C@H](C)[C@H](NC)C(=O)O; Sar = CNCC(=O)O

By EC50 is commonly meant the concentration that produces a half-maximal response. With `CC[C@H](C)[C@@H](C(=O)N[C@@H](CC(C)C)C(=O)N[C@@H](CO)C(=O)N[C@@H](CO)C(=O)N[C@H](C(=O)N[C@@H](CCC(=O)O)C(=O)N[C@H](C(=O)NCC(=O)N[C@@H](CO)C(=O)N[C@@H](CCC(=O)O)C(=O)N[C@H](C(=O)N1CCC[C@H]1C(N)=O)[C@@H](C)O)C(C)C)[C@@H](C)O)N(C)C(=O)[C@H](C)NC(=O)CN(C)C(=O)[C@H](Cc1ccccc1)NC(=O)[C@H](CO)NC(=O)[C@H](CO)NC(=O)[C@H](CO)NC(=O)[C@H](CO)NC(=O)[C@H](CCCNC(=N)N)NC(=O)[C@H](Cc1c[nH]cn1)NC(=O)[C@H](CC(C)C)NC(=O)[C@H](Cc1ccccc1)NC(=O)[C@H](CCC(=O)O)NC(=O)[C@H](C)NC(=O)[C@H](CC(C)C)NC(=O)[C@H](CCCNC(=N)N)NC(=O)CNC(=O)[C@@H](NC(=O)[C@H](C)NC(=O)[C@@H]1CSSC[C@H](NC(=O)[C@H](CCCNC(=N)N)NC(=O)CC[C@H](NC(=O)CCCCCCCCCCCCCCCCCCC(=O)O)C(=O)O)C(=O)N[C@@H](CC(N)=O)C(=O)N[C@@H]([C@@H](C)O)C(=O)N[C@@H](C)C(=O)N[C@@H]([C@@H](C)O)C(=O)N1)[C@@H](C)O` [Compound 122, [19CD]-isoGlu-RC()NTATC()ATGRLAEFLHRSSSSF-Gly(Me)-A-Ile(Me)-LSSTEVGSETP-NH2] ({C20 diacid-γGlu}-RCNTATCATGRLAEFLHRSSSSF[Sar]A[NMeI]LSSTEVGSETP-NH2; disulfide 2-7), the EC50 in data set [1] was found to be 0.11 nM. Moreover, the EC50 in data set [2] came to 0.2 nM. In data set [3], the “Solubility, Acetate buffer pH 4” value is “SS (SS indicates solubility ≥ 1mg/ml)”; the “Solubility, Acetate buffer pH 5” value is given as “SS (SS indicates solubility ≥ 1mg/ml)”; the “Solubility, Histidine buffer pH 6” value is “SS (SS indicates solubility ≥ 1mg/ml)”; the “Solubility, Histidine buffer pH 7” value is “SS (SS indicates solubility ≥ 1mg/ml)”. In data set [3], the “Solubility, Phosphate buffer pH 6” value is recorded as “SS (SS indicates solubility ≥ 1mg/ml)”; the “Solubility, Phosphate buffer pH 7” value was “SS (SS indicates solubility ≥ 1mg/ml)”; the “Solubility, Phosphate buffer pH 7.5” value was “SS (SS indicates solubility ≥ 1mg/ml)”.
As for `CC[C@H](C)[C@@H](C(=O)N[C@@H](CC(C)C)C(=O)N[C@@H](CO)C(=O)N[C@@H](CO)C(=O)N[C@H](C(=O)N[C@@H](CCC(=O)O)C(=O)N[C@H](C(=O)NCC(=O)N[C@@H](CO)C(=O)N[C@@H](CCC(=O)O)C(=O)N[C@H](C(=O)N1CCC[C@H]1C(N)=O)[C@@H](C)O)C(C)C)[C@@H](C)O)N(C)C(=O)[C@H](C)NC(=O)CN(C)C(=O)[C@H](Cc1ccccc1)NC(=O)[C@H](CO)NC(=O)[C@H](CO)NC(=O)[C@H](CO)NC(=O)[C@H](CO)NC(=O)[C@H](CCCNC(=N)N)NC(=O)[C@H](Cc1c[nH]cn1)NC(=O)[C@H](CC(C)C)NC(=O)[C@H](Cc1ccccc1)NC(=O)[C@H](CCC(=O)O)NC(=O)[C@H](C)NC(=O)[C@H](CC(C)C)NC(=O)[C@H](CCCNC(=N)N)NC(=O)[C@@H](NC(=O)[C@@H](NC(=O)[C@H](C)NC(=O)[C@@H]1CSSC[C@H](NC(=O)[C@H](CCCNC(=N)N)NC(=O)CC[C@H](NC(=O)CCCCCCCCCCCCCCCCCCC(=O)O)C(=O)O)C(=O)N[C@@H](CC(N)=O)C(=O)N[C@@H]([C@@H](C)O)C(=O)N[C@@H](C)C(=O)N[C@@H]([C@@H](C)O)C(=O)N1)[C@@H](C)O)[C@@H](C)O` [Compound 123, [19CD]-isoGlu-RC()NTATC()ATTRLAEFLHRSSSSF-Gly(Me)-A-Ile(Me)-LSSTEVGSETP-NH2] ({C20 diacid-γGlu}-RCNTATCATTRLAEFLHRSSSSF[Sar]A[NMeI]LSSTEVGSETP-NH2; disulfide 2-7), the EC50 in data set [1] worked out at 0.28 nM. Moreover, in data set [2], the EC50 amounted to 0.29 nM. In data set [3], the “Solubility, Acetate buffer pH 4” value was “SS (SS indicates solubility ≥ 1mg/ml)”; the “Solubility, Acetate buffer pH 5” value is “SS (SS indicates solubility ≥ 1mg/ml)”; the “Solubility, Histidine buffer pH 6” value is on record as “SS (SS indicates solubility ≥ 1mg/ml)”; the “Solubility, Histidine buffer pH 7” value was “SS (SS indicates solubility ≥ 1mg/ml)”. In data set [3], the “Solubility, Phosphate buffer pH 6” value was “SS (SS indicates solubility ≥ 1mg/ml)”; the “Solubility, Phosphate buffer pH 7” value was “SS (SS indicates solubility ≥ 1mg/ml)”; the “Solubility, Phosphate buffer pH 7.5” value was “SS (SS indicates solubility ≥ 1mg/ml)”.
Take `CC[C@H](C)[C@@H](C(=O)N[C@@H](CC(C)C)C(=O)N[C@@H](CO)C(=O)N[C@@H](CO)C(=O)N[C@H](C(=O)N[C@@H](CCC(=O)O)C(=O)N[C@H](C(=O)NCC(=O)N[C@@H](CO)C(=O)N[C@@H](CCC(=O)O)C(=O)N[C@H](C(=O)N1CCC[C@H]1C(N)=O)[C@@H](C)O)C(C)C)[C@@H](C)O)N(C)C(=O)[C@H](C)NC(=O)CN(C)C(=O)[C@H](Cc1ccccc1)NC(=O)[C@H](CO)NC(=O)[C@H](CO)NC(=O)[C@H](CO)NC(=O)[C@H](CO)NC(=O)[C@H](CCCNC(=N)N)NC(=O)[C@H](Cc1c[nH]cn1)NC(=O)[C@H](CC(C)C)NC(=O)[C@H](Cc1ccccc1)NC(=O)[C@H](CCC(=O)O)NC(=O)[C@H](C)NC(=O)[C@H](CC(C)C)NC(=O)[C@H](CCCNC(=N)N)NC(=O)[C@H](CO)NC(=O)[C@@H](NC(=O)[C@H](C)NC(=O)[C@@H]1CSSC[C@H](NC(=O)[C@H](CCCNC(=N)N)NC(=O)CC[C@H](NC(=O)CCCCCCCCCCCCCCCCCCC(=O)O)C(=O)O)C(=O)N[C@@H](CC(N)=O)C(=O)N[C@@H]([C@@H](C)O)C(=O)N[C@@H](C)C(=O)N[C@@H]([C@@H](C)O)C(=O)N1)[C@@H](C)O` [Compound 124, [19CD]-isoGlu-RC()NTATC()ATSRLAEFLHRSSSSF-Gly(Me)-A-Ile(Me)-LSSTEVGSETP-NH2] ({C20 diacid-γGlu}-RCNTATCATSRLAEFLHRSSSSF[Sar]A[NMeI]LSSTEVGSETP-NH2; disulfide 2-7): in data set [1], the EC50 came to 0.14 nM. The EC50 in data set [2] came out at 0.17 nM. Moreover, in data set [3], the “Solubility, Acetate buffer pH 4” value is reported as “SS (SS indicates solubility ≥ 1mg/ml)”; the “Solubility, Acetate buffer pH 5” value is recorded as “SS (SS indicates solubility ≥ 1mg/ml)”; the “Solubility, Histidine buffer pH 6” value was “SS (SS indicates solubility ≥ 1mg/ml)”; the “Solubility, Histidine buffer pH 7” value is on record as “SS (SS indicates solubility ≥ 1mg/ml)”. In addition, in data set [3], the “Solubility, Phosphate buffer pH 6” value is reported as “SS (SS indicates solubility ≥ 1mg/ml)”; the “Solubility, Phosphate buffer pH 7” value was “SS (SS indicates solubility ≥ 1mg/ml)”; the “Solubility, Phosphate buffer pH 7.5” value is on record as “SS (SS indicates solubility ≥ 1mg/ml)”.
